Paper PMC12655037, “Mitochondrial-Targeted Triphenylphosphonium-Conjugated Ionophores with Enhanced Cytotoxicity in Cancer Cells” (Molecules, 2025)

Tests used:
[1] = test system: A549 human lung cancer cells; test: MTT assay, A549 cells; format: cell-based; settings: A549, 72 h, read-out: IC50 A549
[2] = test system: SW480 human primary colon cancer cells; test: MTT assay, SW480 cells; format: cell-based; settings: SW480, 72 h, read-out: IC50 SW480
[3] = test system: SW620 human metastatic colon cancer cells; test: MTT assay, SW620 cells; format: cell-based; settings: SW-620, 72 h, read-out: IC50 SW620
[4] = test system: PC3 human metastatic prostate cancer cells; test: MTT assay, PC3 cells; format: cell-based; settings: PC-3, 72 h, read-out: IC50 PC3
[5] = test system: A549 cells; test: MitoTracker Red CMXRos flow cytometry (mitochondrial membrane potential), A549; settings: A549, 48 h at IC50 concentration
[6] = Black lipid membrane (BLM) ionic current; settings: at −60 mV, 50/150 mM KCl (cis/trans) gradient
[7] = test system: prostate cancer cells; design: method as in PMID 21159605; settings: no significant effects on normal prostate epithelial cells; cited from earlier work
[8] = test system: A549 cells; test: MitoTracker Green FM flow cytometry (mitochondrial mass), A549; settings: A549, 48 h at IC50 concentration

Row | Compound | IC50 [1] | IC50 [2] | IC50 [3] | IC50 [4] | MTRed CMXRos positive stained cells [5] | ionic current through artificial membrane [6] | growth inhibition of prostate cancer cells [7] | cells positive for MTGreen fluorescence [8]
1 | CC[C@@H](C(=O)[C@@H](C)[C@@H](O)[C@H](C)[C@@H]1O[C@@H]([C@@H](CC)C(=O)O)CC[C@@H]1C)[C@H]1O[C@]2(C=C[C@H](n3cc(CNC(=O)CCC[P+](c4ccccc4)(c4ccccc4)c4ccccc4)nn3)[C@]3(CC[C@@](C)([C@H]4CC[C@](O)(CC)[C@H](C)O4)O3)O2)[C@H](C)C[C@@H]1C [1c] | 15.6 ± 9.1 µM | 9.8 ± 2 µM | 14 ± 4.1 µM | 12.9 ± 1.3 µM | – | – | – | –
2 | CCC1(C2OC(C3OC(O)(COC(=O)CCC(=O)OCCC[P+](c4ccccc4)(c4ccccc4)c4ccccc4)C(C)CC3C)CC2C)CCC(C2(C)CCC3(CC(O)C(C)C(C(C)C(OC)C(C)C(=O)OCCC[P+](c4ccccc4)(c4ccccc4)c4ccccc4)O3)O2)O1 (centres unmarked) [2f] | 1.3 ± 0.2 µM | 1.7 ± 0.3 µM | 2.3 ± 0.4 µM | 1.4 ± 0.1 µM | 22.5% | – | – | –
3 | CCCC[P+](CCCC)(CCCC)Cc1cn([C@H]2C=C[C@]3(O[C@H]([C@@H](CC)C(=O)[C@@H](C)[C@@H](O)[C@H](C)[C@@H]4O[C@@H]([C@@H](CC)C(=O)O)CC[C@@H]4C)[C@@H](C)C[C@H]3C)O[C@@]23CC[C@@](C)([C@H]2CC[C@](O)(CC)[C@H](C)O2)O3)nn1 [1d] | 3.6 ± 0.5 µM | 2.5 ± 0.6 µM | 1.8 ± 0.2 µM | 3.6 ± 1.6 µM | – | −10 pA | – | –
4 | CCCC[P+](CCCC)(CCCC)Cc1cn(CC2(O)OC(C3CC(C)C(C4(CC)CCC(C5(C)CCC6(CC(O)C(C)C(C(C)C(OC)C(C)C(=O)O)O6)O5)O4)O3)C(C)CC2C)nn1 (centres unmarked) [2d] | 1.4 ± 0.4 µM | 3.5 ± 0.1 µM | 4.3 ± 0.01 µM | 3.1 ± 0.6 µM | – | – | – | –
5 | CC[C@@]1([C@@H]2O[C@@H]([C@H]3O[C@@](O)(CO)[C@H](C)C[C@@H]3C)C[C@@H]2C)CC[C@H]([C@]2(C)CC[C@]3(C[C@H](O)[C@@H](C)[C@@H]([C@@H](C)[C@@H](OC)[C@H](C)C(=O)O)O3)O2)O1 [MON, Monensin A] | – | – | – | – | – | – | selectively inhibited the growth of prostate cancer cells at nanomolar concentrations | –
6 | CCC1(C2OC(C3OC(O)(Cn4cc(CNC(=O)CCC[P+](c5ccccc5)(c5ccccc5)c5ccccc5)nn4)C(C)CC3C)CC2C)CCC(C2(C)CCC3(CC(O)C(C)C(C(C)C(OC)C(C)C(=O)O)O3)O2)O1 (centres unmarked) [2c] | 14.9 ± 3.4 µM | 18.3 ± 0.4 µM | 10.6 ± 0.4 µM | 14.5 ± 2.1 µM | – | – | – | –
7 | CC[C@@H](C(=O)[C@@H](C)[C@@H](O)[C@H](C)[C@@H]1O[C@@H]([C@@H](CC)C(=O)OCCCCCC[P+](c2ccccc2)(c2ccccc2)c2ccccc2)CC[C@@H]1C)[C@H]1O[C@]2(C=C[C@@H](OC(=O)CCC(=O)OCCCCCC[P+](c3ccccc3)(c3ccccc3)c3ccccc3)[C@]3(CC[C@@](C)([C@H]4CC[C@](O)(CC)[C@H](C)O4)O3)O2)[C@H](C)C[C@@H]1C [1f] | – | – | – | – | – | −10 pA | – | 61.6%
8 | CCC1(C2OC(C3OC(O)(Cn4cc(C[P+](c5ccccc5)(c5ccccc5)c5ccccc5)nn4)C(C)CC3C)CC2C)CCC(C2(C)CCC3(CC(O)C(C)C(C(C)C(OC)C(C)C(=O)O)O3)O2)O1 (centres unmarked) [2a] | 0.3 ± 0.02 µM | 0.5 ± 0.1 µM | 0.7 ± 0.2 µM | 0.4 ± 0.1 µM | – | – | – | –
9 | CCC1(C2OC(C3OC(O)(Cn4cc(COC(=O)CCC[P+](c5ccccc5)(c5ccccc5)c5ccccc5)nn4)C(C)CC3C)CC2C)CCC(C2(C)CCC3(CC(O)C(C)C(C(C)C(OC)C(C)C(=O)O)O3)O2)O1 (centres unmarked) [2b] | 3.4 ± 1.1 µM | 0.8 ± 0.04 µM | 1.5 ± 0.2 µM | 0.7 ± 0.3 µM | – | – | – | –
10 | CC[C@@H](C(=O)[C@@H](C)[C@@H](O)[C@H](C)[C@@H]1O[C@@H]([C@@H](CC)C(=O)O)CC[C@@H]1C)[C@H]1O[C@]2(C=C[C@H](NC(=O)CCC[P+](c3ccccc3)(c3ccccc3)c3ccccc3)[C@]3(CC[C@@](C)([C@H]4CC[C@](O)(CC)[C@H](C)O4)O3)O2)[C@H](C)C[C@@H]1C [1e] | 5.1 ± 0.8 µM | 10.4 ± 2.3 µM | 10.9 ± 2.6 µM | 4 ± 0.7 µM | – | – | – | –
11 | CC[C@@H](C(=O)[C@@H](C)[C@@H](O)[C@H](C)[C@@H]1O[C@@H]([C@@H](CC)C(=O)O)CC[C@@H]1C)[C@H]1O[C@]2(C=C[C@H](n3cc(COC(=O)CCC[P+](c4ccccc4)(c4ccccc4)c4ccccc4)nn3)[C@]3(CC[C@@](C)([C@H]4CC[C@](O)(CC)[C@H](C)O4)O3)O2)[C@H](C)C[C@@H]1C [1b] | 3.9 ± 0.8 µM | 8.8 ± 2.4 µM | 16.8 ± 4.4 µM | 5.5 ± 1.4 µM | – | – | – | –
12 | CC[C@@H](C(=O)[C@@H](C)[C@@H](O)[C@H](C)[C@@H]1O[C@@H]([C@@H](CC)C(=O)O)CC[C@@H]1C)[C@H]1O[C@]2(C=C[C@@H](O)[C@]3(CC[C@@](C)([C@H]4CC[C@](O)(CC)[C@H](C)O4)O3)O2)[C@H](C)C[C@@H]1C [SAL, Salinomycin, reference compound] | 1.6 ± 0.1 µM | 1.1 ± 0.04 µM | 1.5 ± 0.06 µM | 2.7 ± 0.1 µM | – | – | – | –
13 | CC[C@@H](C(=O)[C@@H](C)[C@@H](O)[C@H](C)[C@@H]1O[C@@H]([C@@H](CC)C(=O)O)CC[C@@H]1C)[C@H]1O[C@]2(C=C[C@H](n3cc(C[P+](c4ccccc4)(c4ccccc4)c4ccccc4)nn3)[C@]3(CC[C@@](C)([C@H]4CC[C@](O)(CC)[C@H](C)O4)O3)O2)[C@H](C)C[C@@H]1C [1a] | 2.9 ± 0.5 µM | 9 ± 3.6 µM | 16.4 ± 2.4 µM | 1.2 ± 0.2 µM | – | – | – | –
14 | CCC1(C2OC(C3OC(O)(CNC(=O)CCC[P+](c4ccccc4)(c4ccccc4)c4ccccc4)C(C)CC3C)CC2C)CCC(C2(C)CCC3(CC(O)C(C)C(C(C)C(OC)C(C)C(=O)O)O3)O2)O1 (centres unmarked) [2e] | > 100 µM | 46.7 ± 3.1 µM | 28.1 ± 2.1 µM | > 100 µM | – | – | – | –
